The Ki is the equilibrium dissociation constant of an inhibitor or competing ligand from its target.

Experiment [1] concerns the target T1, human dopamine D3 receptors (Homo sapiens, UniProt P35462).
T1 construct: expressed in transfected cells; host or cells: HEK-293
Nature of the experiment: Dopamine D3 receptor binding ([125I]-iodosulpride displacement). As to the method:
(§1) Each assay mixture was run in triplicate. • The incubation buffer contained 50 mM tris, 120 mM NaCl, 5 mM KCl, 2 mM CaCl2, 2 mM MgCl2 and 0.1% bovine serum albumin, 10 μM quinolone and 0.1% ascorbic acid (prepared fresh daily). […] Each assay mixture was run in triplicate. • The incubation buffer contained 50 mM tris, 120 mM NaCl, 5 mM KCl, 2 mM CaCl2, 2 mM MgCl2 and 0.1% bovine serum albumin. The buffer was adjusted to pH 7.4 with HCl. • Measurement and Analysis: • After having been incubated at 25° C. for 60 minutes, the assay mixtures were filtered through a Whatman GF/B glass fiber filter under vacuum using a cell collecting device. The filters were transferred to scintillation viols using a filter transfer system. After 4 ml of Ultima Gold® (Packard) have been added, the samples were shaken for one hour and the radioactivity was then counted in a Beta-Counter (Packard, Tricarb 2000 or 2200CA).

Experiment [2] concerns the target T2, human dopamine D2L receptors (long isoform) (Homo sapiens, UniProt P14416).
T2 construct: expressed in transfected cells; host or cells: HEK-293
Put plainly: Dopamine D2L receptor binding ([125I] iodospiperone displacement). The conditions noted are these: selectivity ratio of receptor binding constants, D2L versus D3, HEK-293 membranes. The protocol: as §1

Where [3] appears, read: membranes of HEK-293 cells stably expressing human D3 receptor, 0.1 nM [125I]-iodosulpride, 25° C., 60 minutes, read-out: Ki(D3)*.

Counter-ions that a name gives are not always drawn. Like-named read-outs stand apart in the source and are kept apart here.

T1 sequence (P35462 whole entry): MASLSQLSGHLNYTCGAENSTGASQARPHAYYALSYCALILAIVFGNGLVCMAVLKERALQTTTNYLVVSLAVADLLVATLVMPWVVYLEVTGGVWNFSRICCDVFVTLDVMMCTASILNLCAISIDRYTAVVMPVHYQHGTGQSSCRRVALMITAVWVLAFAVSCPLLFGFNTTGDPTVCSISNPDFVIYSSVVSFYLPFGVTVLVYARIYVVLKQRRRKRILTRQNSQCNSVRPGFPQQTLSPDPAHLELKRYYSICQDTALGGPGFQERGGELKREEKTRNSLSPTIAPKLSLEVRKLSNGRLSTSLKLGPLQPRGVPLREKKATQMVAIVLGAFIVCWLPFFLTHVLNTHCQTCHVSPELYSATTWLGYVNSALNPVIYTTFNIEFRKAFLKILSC
T2 sequence (P14416 whole entry, canonical isoform): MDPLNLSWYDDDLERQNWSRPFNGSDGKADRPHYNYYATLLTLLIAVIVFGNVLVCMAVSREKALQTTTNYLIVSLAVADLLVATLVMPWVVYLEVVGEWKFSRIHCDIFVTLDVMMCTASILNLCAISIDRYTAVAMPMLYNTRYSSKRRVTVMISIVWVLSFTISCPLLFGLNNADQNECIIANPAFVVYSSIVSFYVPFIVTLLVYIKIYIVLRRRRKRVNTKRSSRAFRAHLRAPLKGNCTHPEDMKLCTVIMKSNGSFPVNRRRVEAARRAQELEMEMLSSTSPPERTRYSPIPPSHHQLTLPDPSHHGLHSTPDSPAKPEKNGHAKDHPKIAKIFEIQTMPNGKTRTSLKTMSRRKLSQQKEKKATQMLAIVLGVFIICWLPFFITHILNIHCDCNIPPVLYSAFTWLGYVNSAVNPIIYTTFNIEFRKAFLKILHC

Consider `C=CCNCCc1ccc(NS(=O)(=O)c2ccc(C(C)C)cc2)cc1.Cl` [Example 13, N-[4-(2-Allylamino-ethyl)-phenyl]-4-isopropyl-benzenesulfonamide×HCl], for which the Ki in experiment [1] (setting [3]) amounted to 1.7 nM. The “Ki(D2)*/Ki(D3)*” value in experiment [2] worked out at 74.
The like results for `C=CCNCCc1ccc(NS(=O)(=O)c2ccc(OC(F)(F)F)cc2)cc1.Cl` [Example 16, N-[4-(2-Allylamino-ethyl)-phenyl]-4-trifluoromethoxy-benzenesulfonamide×HCl] were, in that order, 31 nM and 79.
The like results for `CCCNCCc1ccc(CS(=O)(=O)c2ccc(C(C)C)cc2)cc1.Cl` [Example 28, {2-[4-(4-Isopropyl-benzenesulfonylmethyl)-phenyl]-ethyl}-propyl-amine×HCl] were, in that order, 4.8 nM and 130.
As for `C=CCNCCc1ccc(N(CCC)S(=O)(=O)c2ccc(OC(F)(F)F)cc2)cc1.Cl` [Example 18, N-[4-(2-Allylamino-ethyl)-phenyl]-N-propyl-4-trifluoromethoxy-benzenesulfonamide×HCl], in experiment [1] (setting [3]), the Ki is 37 nM. For the same molecule, in experiment [2], the “Ki(D2)*/Ki(D3)*” value was 24.
For `CCCN[C@H](C)Cc1ccc(NS(=O)(=O)c2ccc(OC(F)(F)F)cc2)cc1` [Example 2, N-[4-((R)-2-Propylamino-propyl)-phenyl]-4-trifluoromethoxy-benzenesulfonamide], the inhibition constant (Ki) in experiment [1] is 21 nM. The “Ki(D2)*/Ki(D3)*” value in experiment [2] is reported as 57.
In the case of `CCCN1CCCC1Cc1ccc(NS(=O)(=O)c2ccc(C(C)C)cc2)cc1` (centres unmarked) [Example 11, 4-Isopropyl-N-[4-(1-propyl-pyrrolidin-2-ylmethyl)-phenyl]-benzenesulfonamide], in experiment [1] (setting [3]), the Ki was 0.58 nM. For the same molecule, the “Ki(D2)*/Ki(D3)*” value in experiment [2] amounted to 16.
The matching figures for `CCCNCCc1ccc(NS(=O)(=O)c2ccc(C(C)C)cc2)cc1.Cl` [Example 6, 4-Isopropyl-N-[4-(2-propylamino-ethyl)-phenyl]-benzenesulfonamide×HCl]: 2.2 nM and 22.
Regarding `CCCNCCc1ccc(NS(=O)(=O)c2ccc(C(C)C)cc2)cn1` [Example 10, 4-Isopropyl-N-[6-(2-propylamino-ethyl)-pyridin-3-yl]-benzenesulfonamide×2HCl], the Ki in experiment [1] (setting [3]) is 42 nM. Moreover, the “Ki(D2)*/Ki(D3)*” value in experiment [2] came to 53.
`C=CCNCCc1ccc(N(CCC)S(=O)(=O)c2ccc(C(C)C)cc2)cc1.Cl` [Example 15, N-[4-(2-Allylamino-ethyl)-phenyl]-4-isopropyl-N-propyl-benzenesulfonamide×HCl]: in experiment [1] (setting [3]), the Ki came out at 22 nM. In addition, the “Ki(D2)*/Ki(D3)*” value in experiment [2] was found to be 22.
The matching figures for `C=CCN(CC=C)CCc1ccc(NS(=O)(=O)c2ccc(OC(F)(F)F)cc2)cc1` [Example 20, N-[4-(2-Diallylamino-ethyl)-phenyl]-4-trifluoromethoxy-benzenesulfonamide×HCl]: 64 nM and 65.
The matching figures for `C=CCN(CC=C)CCc1ccc(NS(=O)(=O)c2ccc(C(C)C)cc2)cc1` [Example 19, N-[4-(2-Diallylamino-ethyl)-phenyl]-4-isopropyl-benzenesulfonamide×HCl]: 2.7 nM and 42.
As for `C=CCN(CC=C)CCc1ccc(CS(=O)(=O)c2ccc(C(C)C)cc2)cc1` [Example 23, Diallyl-{2-[4-(4-isopropyl-benzenesulfonylmethyl)-phenyl]-ethyl}-amine×HCl], the affinity in experiment [1], expressed as Ki, was 8.4 nM. Further, in experiment [2], the “Ki(D2)*/Ki(D3)*” value was 59.
Regarding `C=CCNCCc1ccc(N(C)S(=O)(=O)c2ccc(C(C)C)cc2)cc1.Cl` [Example 14, N-[4-(2-Allylamino-ethyl)-phenyl]-4-isopropyl-N-methyl-benzenesulfonamide×HCl], the Ki in experiment [1] (setting [3]) was determined as 27 nM. In experiment [2], the “Ki(D2)*/Ki(D3)*” value turned out to be 40.
`CCCNC(C)Cc1ccc(NS(=O)(=O)c2ccc(C(C)C)cc2)cc1.Cl` (centres unmarked) [Example 3, 4-Isopropyl-N-[4-(2-propylamino-propyl)-phenyl]-benzenesulfonamide×HCl]: in experiment [1] (setting [3]), the Ki came to 2.8 nM. For the same molecule, in experiment [2], the “Ki(D2)*/Ki(D3)*” value is given as 33.
For the molecule `C=CCNCCc1cccc(NS(=O)(=O)c2ccc(C(C)C)cc2)c1` [Example 21, N-[3-(2-Allylamino-ethyl)-phenyl]-4-isopropyl-benzenesulfonamide, reference compound], in experiment [1], the inhibitory constant (Ki) is 22 nM. Besides, in experiment [2], the “Ki(D2)*/Ki(D3)*” value was found to be 62.
The matching figures for `CCCN(CCC)CCc1ccc(CS(=O)(=O)c2ccc(OC(F)(F)F)cc2)cc1` [Example 26, Dipropyl-{2-[4-(4-trifluoromethoxy-benzenesulfonylmethyl)-phenyl]-ethyl}-dipropyl-amine×HCl]: 3.9 nM and 170.
As for `CCCN(CCC)CCc1ccc(NS(=O)(=O)c2ccc(C(C)C)cc2)cc1` [Example 8, N-[4-(2-Dipropylamino-ethyl)-phenyl]-4-isopropyl-benzenesulfonamide×HCl], the Ki in experiment [1] (setting [3]) stood at 0.2 nM. In addition, the “Ki(D2)*/Ki(D3)*” value in experiment [2] is 54.
The like results for `C=CCNCCc1ccc(N(C)S(=O)(=O)c2ccc(OC(F)(F)F)cc2)cc1` [Example 17, N-[4-(2-Allylamino-ethyl)-phenyl]-N-methyl-4-trifluoromethoxy-benzenesulfonamide×HCl] were, in that order, 34 nM and 75.
As to `CCCN(CCC)CCc1ccc(CS(=O)(=O)c2ccc(C(C)C)cc2)cc1` [Example 25, Dipropyl-{2-[4-(4-isopropyl-benzenesulfonylmethyl)-phenyl]-ethyl}-amine×HCl], the Ki in experiment [1] (setting [3]) stood at 0.5 nM. In addition, in experiment [2], the “Ki(D2)*/Ki(D3)*” value is reported as 175.
With `CCCN[C@@H](C)Cc1ccc(NS(=O)(=O)c2ccc(OC(F)(F)F)cc2)cc1` [Example 1, N-[4-((S)-2-Propylamino-propyl)-phenyl]-4-trifluoromethoxy-benzenesulfonamide], in experiment [1], the Ki is 43 nM. The “Ki(D2)*/Ki(D3)*” value in experiment [2] is 41.
In the case of `CC(C)c1ccc(S(=O)(=O)Nc2ccc(CCNCC3CC3)cc2)cc1` [Example 7, N-{4-[2-(Cyclopropylmethyl-amino)-ethyl]-phenyl}-4-isopropyl-benzenesulfonamide×HCl], in experiment [1] (setting [3]), the Ki was found to be 18 nM. In addition, the “Ki(D2)*/Ki(D3)*” value in experiment [2] is listed as 23.
The matching figures for `CCCN(CCC)CCc1ccc(N(C)S(=O)(=O)c2ccc(C(C)C)cc2)cc1` [Example 9, N-[4-(2-Dipropylamino-ethyl)-phenyl]-4-isopropyl-N-methyl-benzenesulfonamide×HCl]: 2 nM and 40.

Source of the values: US8232426B2, “Aminoethylaromatic compounds suitable for treating disorders that respond to modulation of the dopamine D3 receptor” (Abbott GmbH & Co. KG, priority 2004, dated 2012).
